Assay results: PMC7290235, “Regulation of Exopolysaccharide Production by ProE, a Cyclic-Di-GMP Phosphodiesterase in Pseudomonas aeruginosa PAO1” (Frontiers in Microbiology, 2020)

Experiments:
[1] = molecular target: T1, WspR (Pseudomonas aeruginosa, UniProt Q9HXT9); assay: HPLC of c-di-GMP formation; format: biochemical; conditions: 500 uM GTP, 5 uM enzyme, Tris-HCl pH 7.8, 250 mM NaCl, 25 mM KCl, 10 mM MgCl2, 37 C, 120 min
T1 construct: wspR in pET28b(+) (BamHI/HindIII), His tag, Ni-NTA purified; tag removal not mentioned
T1 sequence (Q9HXT9 entry or part of it): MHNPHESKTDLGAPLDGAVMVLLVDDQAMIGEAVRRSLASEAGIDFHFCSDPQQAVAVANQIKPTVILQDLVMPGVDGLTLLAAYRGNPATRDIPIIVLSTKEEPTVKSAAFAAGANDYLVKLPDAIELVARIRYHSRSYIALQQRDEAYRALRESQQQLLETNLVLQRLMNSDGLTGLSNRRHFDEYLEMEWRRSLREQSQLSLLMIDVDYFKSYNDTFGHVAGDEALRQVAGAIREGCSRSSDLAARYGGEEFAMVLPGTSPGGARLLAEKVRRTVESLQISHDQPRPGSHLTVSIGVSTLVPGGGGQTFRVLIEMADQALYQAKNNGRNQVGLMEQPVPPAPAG

[2] = molecular target: T2, ProE (Pseudomonas aeruginosa, UniProt Q9HTQ9); assay: HPLC of pGpG formation, […] nm; format: biochemical; conditions: 50 uM c-di-GMP, 0.08 uM enzyme, Tris-HCl pH 8.0, 20 mM KCl, 5 mM MgCl2, 37 C, 20 min
T2 construct: gene PA5295; coding region in pET28b(+) (BamHI/HindIII), His tag, Ni-NTA purified; GGDEF 113-282, EAL 292-538; tag removal not mentioned
T2 sequence (Q9HTQ9 entry or part of it): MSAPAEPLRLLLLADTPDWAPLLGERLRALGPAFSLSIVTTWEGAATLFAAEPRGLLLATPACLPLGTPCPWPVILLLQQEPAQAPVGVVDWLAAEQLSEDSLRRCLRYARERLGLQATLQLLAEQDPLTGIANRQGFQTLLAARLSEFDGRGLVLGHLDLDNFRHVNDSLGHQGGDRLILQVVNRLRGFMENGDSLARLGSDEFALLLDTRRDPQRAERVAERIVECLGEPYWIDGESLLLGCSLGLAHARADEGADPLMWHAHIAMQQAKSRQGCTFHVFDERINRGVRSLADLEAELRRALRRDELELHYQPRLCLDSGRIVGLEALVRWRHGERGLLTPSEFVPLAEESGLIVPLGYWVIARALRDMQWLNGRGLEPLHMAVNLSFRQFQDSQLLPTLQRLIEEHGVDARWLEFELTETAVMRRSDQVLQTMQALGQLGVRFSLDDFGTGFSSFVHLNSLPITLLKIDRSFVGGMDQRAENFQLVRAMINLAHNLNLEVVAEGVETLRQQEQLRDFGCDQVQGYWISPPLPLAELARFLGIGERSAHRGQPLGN

Compound	HPLC of c-di-GMP formation [1]	HPLC of pGpG formation, 254 nm [2]
Nc1nc2c(ncn2[C@@H]2O[C@H](COP(=O)(O)OP(=O)(O)OP(=O)(O)O)[C@@H](O)[C@H]2O)c(=O)[nH]1 [GTP]	the control protein WspR could convert most GTP into c-di-GMP	–
Nc1nc2c(ncn2[C@@H]2O[C@@H]3COP(=O)(O)O[C@H]4[C@@H](O)[C@H](n5cnc6c(=O)[nH]c(N)nc65)O[C@@H]4COP(=O)(O)O[C@H]3[C@H]2O)c(=O)[nH]1 [c-di-GMP]	–	HPLC analysis showed that the degradation product pGpG was produced
